Measured values as given in patent US7396837B2, “Antitumoral analogs of lamellarins” (Pharma Mar, S.A.U., priority 2002, dated 2008).
Like-named read-outs stand apart in the source and are kept apart here.

Assays:
Format in all cases: cell-based
SKOV-3 = assay: SRB colorimetric cell growth inhibition assay, SKOV-3; details: Homo sapiens
Method in brief: (§1)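 Growth inhibition (GI), total growth inhibition (TGI, cytostatic) and lethal concentration (LC, cytotoxic) come from an SRB-based colorimetric measure of growth and viability. Data are triplicate-well means ± SD.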

K-562 = assay: SRB colorimetric cell growth inhibition assay, K-562; details: Homo sapiens
Method in brief: (§2)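 Triplicate-well SRB colorimetry following continuous sample exposure of human tumour cells; reported parameters are GI, TGI for cytostatic effect, and LC for cytotoxic effect.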

LoVo = assay: SRB colorimetric cell growth inhibition assay, LoVo; details: Homo sapiens, LoVo; for GI50: read-out: GI50 LOVO; for CC50: read-out: LC50 LOVO; for IC (TGI): read-out: TGI LOVO
Method in brief: as §2

SK-MEL-28 = assay: SRB colorimetric cell growth inhibition assay, SK-MEL-28; details: Homo sapiens
Method in brief: as §2

SK-BR-3 = assay: SRB colorimetric cell growth inhibition assay, SK-BR-3; details: Homo sapiens
Method in brief: as §2

LNCaP = assay: SRB colorimetric cell growth inhibition assay, LNCaP; details: Homo sapiens, LNCaP; for GI50: read-out: GI50 LN-caP; for CC50: read-out: LC50 LN-caP; for IC (TGI): read-out: TGI LN-caP
Method in brief: as §2

A-549 = assay: SRB colorimetric cell growth inhibition assay, A-549; details: Homo sapiens
Method in brief: as §2

LoVo-Dox = assay: SRB colorimetric cell growth inhibition assay, LoVo-Dox (MDR); details: Homo sapiens; for GI50: read-out: GI50 LOVO-DOX; for CC50: read-out: LC50 LOVO-DOX; for IC (TGI): read-out: TGI LOVO-DOX
Method in brief: as §2

DU-145 = assay: SRB colorimetric cell growth inhibition assay, DU-145; details: Homo sapiens
Method in brief: as §2

IGROV-ET = assay: SRB colorimetric cell growth inhibition assay, IGROV-ET (ET-743 resistant); details: Homo sapiens; for GI50: read-out: GI50 IGROV-ET; for CC50: read-out: LC50 IGROV-ET; for IC (TGI): read-out: TGI IGROV-ET
Method in brief: as §2

HT-29 = assay: SRB colorimetric cell growth inhibition assay, HT-29; details: Homo sapiens
Method in brief: as §2

PANC-1 = assay: SRB colorimetric cell growth inhibition assay, PANC-1; details: Homo sapiens
Method in brief: as §2

IGROV = assay: SRB colorimetric cell growth inhibition assay, IGROV; details: Homo sapiens, IGROV; for GI50: read-out: GI50 IGROV; for CC50: read-out: LC50 IGROV; for IC (TGI): read-out: TGI IGROV
Method in brief: as §2

H-MEC-1 = assay: SRB colorimetric cell growth inhibition assay, H-MEC-1; details: Homo sapiens
Method in brief: as §1

[1] = as above; details: human, H-MEC-1, cell killing (cytotoxic effect), read-out: LC50 H-MEC-1
Method in brief: as §1

[2] = cell killing (cytotoxic effect)
[3] = total growth inhibition (cytostatic effect)

COc1cc(-c2c3n(c4c(=O)oc5cc(O)c(OC)cc5c24)CCc2c-3cc(OC)c(OC)c2O)ccc1O [Compound 1]
GI50 (SKOV-3; SK-OV-3, SKOV-3, GI=growth inhibition, read-out: GI50 SKOV-3): 13.7 µM | LC50 (concentration causing 50% net cell killing) (SKOV-3; SK-OV-3, SKOV-3, cell killing (cytotoxic effect), read-out: LC50 SKOV-3): 18.8 µM | IC (TGI) (SKOV-3; SK-OV-3, SKOV-3, total growth inhibition (cytostatic effect), read-out: TGI SKOV-3): 18.8 µM | GI50 (K-562; K562, K-562, GI=growth inhibition, read-out: GI50 K-562): 0.815 µM | CC50 (K-562; K562, K-562, cell killing (cytotoxic effect), read-out: LC50 K-562): 2.97 µM | IC (TGI) (K-562; K562, K-562, total growth inhibition (cytostatic effect), read-out: TGI K-562): 2.11 µM | GI50 (LoVo; GI=growth inhibition): 11.8 µM | CC50 (LoVo; [2]): 18.8 µM | IC (TGI) (LoVo; [3]): 57.6 µM | GI50 (SK-MEL-28; SK-MEL-28, MEL-28, GI=growth inhibition, read-out: GI50 MEL-28): 2.24 µM | CC50 (SK-MEL-28; SK-MEL-28, MEL-28, cell killing (cytotoxic effect), read-out: LC50 MEL-28): 11.3 µM | IC (TGI) (SK-MEL-28; SK-MEL-28, MEL-28, total growth inhibition (cytostatic effect), read-out: TGI MEL-28): 5.04 µM | GI50 (SK-BR-3; SK-BR-3, SK-BR-3, GI=growth inhibition, read-out: GI50 SK-BR-3): 2.37 µM | CC50 (SK-BR-3; SK-BR-3, SK-BR-3, cell killing (cytotoxic effect), read-out: LC50 SK-BR-3): 18.8 µM | IC (TGI) (SK-BR-3; SK-BR-3, SK-BR-3, total growth inhibition (cytostatic effect), read-out: TGI SK-BR-3): 10.9 µM | GI50 (LNCaP; LN-caP, GI=growth inhibition): 0.277 µM | CC50 (LNCaP; LN-caP, cell killing (cytotoxic effect)): 7.85 µM | IC (TGI) (LNCaP; LN-caP, total growth inhibition (cytostatic effect)): 1.44 µM | GI50 (A-549; A549, A-549, GI=growth inhibition, read-out: GI50 A-549): ≥ 1.88 µM | CC50 (A-549; A549, A-549, cell killing (cytotoxic effect), read-out: LC50 A-549): ≥ 1.88 µM | IC (TGI) (A-549; A549, A-549, total growth inhibition (cytostatic effect), read-out: TGI A-549): 1.88 µM | GI50 (LoVo-Dox; LOVO-DOX, GI=growth inhibition): 0.801 µM | CC50 (LoVo-Dox; LOVO-DOX, cell killing (cytotoxic effect)): 18.8 µM | IC (TGI) (LoVo-Dox; LOVO-DOX, total growth inhibition (cytostatic effect)): 7.13 µM | GI50 (DU-145; DU-145, DU-145, GI=growth inhibition, read-out: GI50 DU-145): 8.24 µM | CC50 (DU-145; DU-145, DU-145, cell killing (cytotoxic effect), read-out: LC50 DU-145): 17 µM | IC (TGI) (DU-145; DU-145, DU-145, total growth inhibition (cytostatic effect), read-out: TGI DU-145): 11.8 µM | GI50 (IGROV-ET; IGROV-ET, GI=growth inhibition): 0.444 µM | CC50 (IGROV-ET; IGROV-ET, cell killing (cytotoxic effect)): 18.8 µM | IC (TGI) (IGROV-ET; IGROV-ET, total growth inhibition (cytostatic effect)): 1.2 µM | GI50 (HT-29; HT-29, HT-29, GI=growth inhibition, read-out: GI50 HT-29): ≥ 18.8 µM | CC50 (HT-29; HT-29, HT-29, cell killing (cytotoxic effect), read-out: LC50 HT-29): 18.8 µM | IC (TGI) (HT-29; HT-29, HT-29, total growth inhibition (cytostatic effect), read-out: TGI HT-29): 18.8 µM | GI50 (PANC-1; PANC-1, PANC-1, GI=growth inhibition, read-out: GI50 PANC-1): 2.2 µM | CC50 (PANC-1; PANC-1, PANC-1, cell killing (cytotoxic effect), read-out: LC50 PANC-1): 18.8 µM | IC (TGI) (PANC-1; PANC-1, PANC-1, total growth inhibition (cytostatic effect), read-out: TGI PANC-1): 7.94 µM | GI50 (IGROV; GI=growth inhibition): 0.493 µM | CC50 (IGROV; [2]): 18.8 µM | IC (TGI) (IGROV; [3]): 1.76 µM | GI50 (H-MEC-1; HMEC-1, H-MEC-1, GI=growth inhibition, read-out: GI50 H-MEC-1): 0.606 µM | IC (TGI) (H-MEC-1; HMEC-1, H-MEC-1, total growth inhibition (cytostatic effect), read-out: TGI H-MEC-1): 1.38 µM | LC50 (concentration giving 50% net cell killing) ([1]; H-MEC-1 cells): 5.72 µM

COc1cc(-c2c3c4cc(OC)c(O)cc4oc(=O)c3n3ccc4c(O)c(OC)c(OC)cc4c23)ccc1O [Compound 2]
GI50 (SKOV-3; SK-OV-3, read-out: GI50 SKOV-3): 0.14 µM | LC50 (concentration causing 50% net cell killing) (SKOV-3; SK-OV-3, read-out: LC50 SKOV-3): ≥ 18.9 µM | IC (TGI) (SKOV-3; SK-OV-3, read-out: TGI SKOV-3): 5.1 µM | GI50 (K-562; K562, read-out: GI50 K-562): 0.117 µM | CC50 (K-562; K562, read-out: LC50 K-562): 18.9 µM | IC (TGI) (K-562; K562, read-out: TGI K-562): 2.25 µM | GI50 (LoVo): 0.398 µM | CC50 (LoVo): 16 µM | IC (TGI) (LoVo): 3.02 µM | GI50 (SK-MEL-28; SK-MEL-28, read-out: GI50 MEL-28): 0.302 µM | CC50 (SK-MEL-28; SK-MEL-28, read-out: LC50 MEL-28): ≥ 18.9 µM | IC (TGI) (SK-MEL-28; SK-MEL-28, read-out: TGI MEL-28): 3.66 µM | GI50 (SK-BR-3; SK-BR-3, read-out: GI50 SK-BR-3): 0.314 µM | CC50 (SK-BR-3; SK-BR-3, read-out: LC50 SK-BR-3): ≥ 18.8 µM | IC (TGI) (SK-BR-3; SK-BR-3, read-out: TGI SK-BR-3): 2.36 µM | GI50 (LNCaP): 0.0727 µM | CC50 (LNCaP): 1.44 µM | IC (TGI) (LNCaP): 0.398 µM | GI50 (A-549; A549, read-out: GI50 A-549): 0.674 µM | CC50 (A-549; A549, read-out: LC50 A-549): 18.9 µM | IC (TGI) (A-549; A549, read-out: TGI A-549): 18.9 µM | GI50 (LoVo-Dox): 0.604 µM | CC50 (LoVo-Dox): 18.9 µM | IC (TGI) (LoVo-Dox): 3.83 µM | GI50 (DU-145; DU-145, read-out: GI50 DU-145): 0.064 µM | CC50 (DU-145; DU-145, read-out: LC50 DU-145): ≥ 18.9 µM | IC (TGI) (DU-145; DU-145, read-out: TGI DU-145): 0.14 µM | GI50 (IGROV-ET): 1.98 µM | CC50 (IGROV-ET): ≥ 18.9 µM | IC (TGI) (IGROV-ET): 8.12 µM | GI50 (HT-29; HT-29, read-out: GI50 HT-29): 8.31 µM | CC50 (HT-29; HT-29, read-out: LC50 HT-29): 18.9 µM | IC (TGI) (HT-29; HT-29, read-out: TGI HT-29): 18.9 µM | GI50 (PANC-1; PANC-1, read-out: GI50 PANC-1): 0.988 µM | CC50 (PANC-1; PANC-1, read-out: LC50 PANC-1): 18.9 µM | IC (TGI) (PANC-1; PANC-1, read-out: TGI PANC-1): 6.97 µM | GI50 (IGROV): 0.88 µM | CC50 (IGROV): ≥ 18.9 µM | IC (TGI) (IGROV): 5.17 µM | GI50 (H-MEC-1; HMEC-1, read-out: GI50 H-MEC-1): 0.665 µM | IC (TGI) (H-MEC-1; HMEC-1, read-out: TGI H-MEC-1): 18.9 µM | LC50 (concentration giving 50% net cell killing) [1]: ≥ 18.9 µM
